A word on the pIC50: it is the negative decadic logarithm of the IC50, by convention in mol/L.

The source of these data is patent US20260132132A1, “3A,4,5,6-TETRAHYDRO-1 H-PYRAZOLO[3,4-C]PYRIDIN-7(7AH)-ONE DERIVATIVES AS FACTOR XIIA INHIBITORS” (KALVISTA PHARMACEUTICALS LIMITED, priority 2022, published 2026).

pIC50: −log10 of the molar value.

The target in the assay is T1, Human Factor XIIa (hFXIIa) (Homo sapiens, UniProt P00748).
T1 construct: purchased Enzyme Research Laboratories
T1 sequence (P00748 373-615 limits assumed): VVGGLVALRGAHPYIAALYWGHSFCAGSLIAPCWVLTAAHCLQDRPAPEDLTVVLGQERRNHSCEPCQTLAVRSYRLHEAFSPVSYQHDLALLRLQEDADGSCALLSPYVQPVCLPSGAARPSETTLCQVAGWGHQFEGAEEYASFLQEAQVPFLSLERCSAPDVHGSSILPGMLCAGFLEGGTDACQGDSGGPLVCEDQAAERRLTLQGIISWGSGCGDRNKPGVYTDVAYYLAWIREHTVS
T1 sequence (P00748 20-372 partner limits assumed): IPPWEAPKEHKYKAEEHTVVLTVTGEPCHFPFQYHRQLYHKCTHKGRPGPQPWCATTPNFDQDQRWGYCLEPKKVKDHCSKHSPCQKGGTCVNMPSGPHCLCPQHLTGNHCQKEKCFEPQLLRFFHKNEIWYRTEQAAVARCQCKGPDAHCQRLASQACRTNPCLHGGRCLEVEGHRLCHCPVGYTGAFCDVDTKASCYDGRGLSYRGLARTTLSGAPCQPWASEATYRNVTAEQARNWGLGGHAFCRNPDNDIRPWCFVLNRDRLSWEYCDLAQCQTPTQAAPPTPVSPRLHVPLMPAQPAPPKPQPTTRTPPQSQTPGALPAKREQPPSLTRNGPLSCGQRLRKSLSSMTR
Briefly: Determination of Human Factor XIIa (hFXIIa) inhibition, fluorogenic substrate IC50 assay. Format: biochemical. As to conditions: fluorogenic substrate H-DPro-Phe-Arg-AFC at Km, 25° C., read-out: Human FXIIa IC50. The protocol:
Determination of Human Factor XIIa (hFXIIa) inhibition
The Km for the cleavage of the substrate by hFXIIa was determined by standard transformation of the Michaelis-Menten equation, with subsequent inhibition assays performed at substrate Km concentration.
`CN(C)C(=O)c1cnnc(N2CCc3c(C(=O)NCC4CC4)nn(-c4cccc(Cl)c4)c3C2=O)c1` [Example 1298, 1-(3-chlorophenyl)-N-(cyclopropylmethyl)-6-(5-(dimethylcarbamoyl)pyridazin-3-yl)-7-oxo-4,5,6,7-tetrahydro-1H-pyrazolo[3,4-c]pyridine-3-carboxamide]: the negative logarithm of the IC50 (pIC50) is 5.00 to 5.52.

Take `O=C(NCC1CC1)c1nn(-c2cccc(Cl)c2)c2c1CCN(c1ccc3c(c1)CN(CCO)CC3(F)F)C2=O` [Example 1300, 1-(3-chlorophenyl)-N-(cyclopropylmethyl)-6-(4,4-difluoro-2-(2-hydroxyethyl)-1,2,3,4-tetrahydroisoquinolin-7-yl)-7-oxo-4,5,6,7-tetrahydro-1H-pyrazolo[3,4-c]pyridine-3-carboxamide]: the negative-log IC50 (pIC50) was 5.00 to 5.52.

In the case of `CN1CCc2ncc(N3CCc4c(C(=O)NCC5CC5)nn(-c5cccc(Cl)c5)c4C3=O)cc2C1=O` [Example 1301, 1-(3-chlorophenyl)-N-(cyclopropylmethyl)-6-(6-methyl-5-oxo-5,6,7,8-tetrahydro-1,6-naphthyridin-3-yl)-7-oxo-4,5,6,7-tetrahydro-1H-pyrazolo[3,4-c]pyridine-3-carboxamide], the negative-log IC50 (pIC50) was 5.52 to 6.00.

Take `Cc1ccncc1CNC(=O)c1nn(-c2cccc(Cl)c2)c2c1CCN(c1cnc3c(c1)C(=O)N(C)CC3)C2=O` [Example 1302, 1-(3-chlorophenyl)-6-(6-methyl-5-oxo-5,6,7,8-tetrahydro-1,6-naphthyridin-3-yl)-N-((4-methylpyridin-3-yl)methyl)-7-oxo-4,5,6,7-tetrahydro-1H-pyrazolo[3,4-c]pyridine-3-carboxamide]: the pIC50 is 6.00 to 6.52.

As for `Cc1cc(CNC(=O)c2nn(-c3cccc(Cl)c3)c3c2CCN(c2cnc4c(c2)C(=O)N(C)CC4)C3=O)nn1C` [Example 1303, 1-(3-chlorophenyl)-N-((1,5-dimethyl-1H-pyrazol-3-yl)methyl)-6-(6-methyl-5-oxo-5,6,7,8-tetrahydro-1,6-naphthyridin-3-yl)-7-oxo-4,5,6,7-tetrahydro-1H-pyrazolo[3,4-c]pyridine-3-carboxamide], the pIC50 is 6.00 to 6.52.

`COCCN(C)C(=O)c1cccc(N2CCc3c(C(=O)NCC4CC4)nn(-c4cccc(Cl)c4)c3C2=O)c1` [Example 1311, 1-(3-chlorophenyl)-N-(cyclopropylmethyl)-6-(3-((2-methoxyethyl)(methyl)carbamoyl)phenyl)-7-oxo-4,5,6,7-tetrahydro-1H-pyrazolo[3,4-c]pyridine-3-carboxamide]: the negative logarithm of the IC50 (pIC50) is 5.00 to 5.52.

As for `CN(CCO)C(=O)c1cccc(N2CCc3c(C(=O)NCC4CC4)nn(-c4cccc(Cl)c4)c3C2=O)c1` [Example 1312, 1-(3-chlorophenyl)-N-(cyclopropylmethyl)-6-(3-((2-hydroxyethyl)(methyl)carbamoyl)phenyl)-7-oxo-4,5,6,7-tetrahydro-1H-pyrazolo[3,4-c]pyridine-3-carboxamide], the negative logarithm of the IC50 (pIC50) is 5.00 to 5.52.

Consider `O=C(NCC1CC1)c1nn(-c2cccc(Cl)c2)c2c1CCN(c1cccc(N3CCOCC3=O)c1)C2=O` [Example 1313, 1-(3-chlorophenyl)-N-(cyclopropylmethyl)-7-oxo-6-(3-(3-oxomorpholino)phenyl)-4,5,6,7-tetrahydro-1H-pyrazolo[3,4-c]pyridine-3-carboxamide], for which the pIC50 is 5.00 to 5.52.

`O=C(NCC1CC1)c1nn(-c2cccc(Cl)c2)c2c1CCN(c1cccc(CN3CCOC3=O)c1)C2=O` [Example 1316, 1-(3-chlorophenyl)-N-(cyclopropylmethyl)-7-oxo-6-(3-((2-oxooxazolidin-3-yl)methyl)phenyl)-4,5,6,7-tetrahydro-1H-pyrazolo[3,4-c]pyridine-3-carboxamide]: the pIC50 is 4.40 to 5.00.

`CCOC(=O)c1nn(-c2cccc(Cl)c2)c2c1CCN(c1cccc(CN(C)C(=O)CO)c1)C2=O` [Example 1322, ethyl 1-(3-chlorophenyl)-6-(3-((2-hydroxy-N-methylacetamido)methyl)phenyl)-7-oxo-4,5,6,7-tetrahydro-1H-pyrazolo[3,4-c]pyridine-3-carboxylate]: the pIC50 is 4.40 to 5.00.

With `CCOC(=O)c1nn(-c2cccc(Cl)c2)c2c1CCN(c1cccc(N3CCCC3=O)c1)C2=O` [Example 1323, ethyl 1-(3-chlorophenyl)-7-oxo-6-(3-(2-oxopyrrolidin-1-yl)phenyl)-4,5,6,7-tetrahydro-1H-pyrazolo[3,4-c]pyridine-3-carboxylate], the negative-log IC50 (pIC50) was 5.52 to 6.00.

For `CCOC(=O)c1nn(-c2cccc(Cl)c2)c2c1CCN(c1ccc(OC)c(C(=O)N(C)C)c1)C2=O` [Example 1324, ethyl 1-(3-chlorophenyl)-6-(3-(dimethylcarbamoyl)-4-methoxyphenyl)-7-oxo-4,5,6,7-tetrahydro-1H-pyrazolo[3,4-c]pyridine-3-carboxylate], the pIC50 is 5.52 to 6.00.

With `CCOC(=O)c1nn(-c2cccc(Cl)c2)c2c1CCN(c1cccc(N3CC(C(F)(F)F)CC3=O)c1)C2=O` (centres unmarked) [Example 1405, ethyl 1-(3-chlorophenyl)-7-oxo-6-(3-(2-oxo-4-(trifluoromethyl)pyrrolidin-1-yl)phenyl)-4,5,6,7-tetrahydro-1H-pyrazolo[3,4-c]pyridine-3-carboxylate], the pIC50 was 4.40 to 5.00.

Regarding `CN1CCc2ccc(N3CCc4c(C(=O)NC56CC(O)(C5)C6)nn(-c5cccc(Cl)c5)c4C3=O)cc2C1` [Example 1437, 1-(3-chlorophenyl)-N-(3-hydroxybicyclo[1.1.1]pentan-1-yl)-6-(2-methyl-1,2,3,4-tetrahydroisoquinolin-7-yl)-7-oxo-4,5,6,7-tetrahydro-1H-pyrazolo[3,4-c]pyridine-3-carboxamide], the pIC50 was 6.52 to 7.00.

Turning to `CN1CCc2ccc(N3CCc4c(C(=O)N[C@H](CO)c5ccccc5)nn(-c5cccc(Cl)c5F)c4C3=O)cc2C1` [Example 2001, (S)-1-(3-chloro-2-fluorophenyl)-N-(2-hydroxy-1-phenylethyl)-6-(2-methyl-1,2,3,4-tetrahydroisoquinolin-7-yl)-7-oxo-4,5,6,7-tetrahydro-1H-pyrazolo[3,4-c]pyridine-3-carboxamide], the pIC50 is 7.00 to 8.00.

On to `COc1ccc(-n2nc(C(=O)NCc3cnccc3C)c3c2C(=O)N(c2ccc4c(c2)CN(CCO)CC4)CC3)cc1` [Example 2003, 6-(2-(2-hydroxyethyl)-1,2,3,4-tetrahydroisoquinolin-7-yl)-1-(4-methoxyphenyl)-N-((4-methylpyridin-3-yl)methyl)-7-oxo-4,5,6,7-tetrahydro-1H-pyrazolo[3,4-c]pyridine-3-carboxamide], for which the pIC50 is 6.00 to 6.52.

On to `Cc1cccc(-n2nc(C(=O)NCC3CC3)c3c2C(=O)N(c2ccc4c(c2)C(=O)N(C)CC4)CC3)c1` [Example 2011, N-(cyclopropylmethyl)-6-(2-methyl-1-oxo-1,2,3,4-tetrahydroisoquinolin-7-yl)-7-oxo-1-(m-tolyl)-4,5,6,7-tetrahydro-1H-pyrazolo[3,4-c]pyridine-3-carboxamide], for which the negative-log IC50 (pIC50) is 6.00 to 6.52.

On to `CN1CCc2ccc(N3CCc4c(C(=O)NCC5CC5)nn(-c5cc(Cl)cc(C(N)=O)c5)c4C3=O)cc2C1=O` [Example 2014, 1-(3-carbamoyl-5-chlorophenyl)-N-(cyclopropylmethyl)-6-(2-methyl-1-oxo-1,2,3,4-tetrahydroisoquinolin-7-yl)-7-oxo-4,5,6,7-tetrahydro-1H-pyrazolo[3,4-c]pyridine-3-carboxamide], for which the pIC50 is 6.00 to 6.52.

With `CN1CCc2ccc(N3CCc4c(C(=O)NCC5CC5)nn(-c5csc(Cl)c5)c4C3=O)cc2C1=O` [Example 2015], the negative logarithm of the IC50 (pIC50) is 5.52 to 6.00.

In the case of `CN1CCc2ccc(N3CCc4c(C(=O)NCC5CC5)nn(-c5cc(Cl)ccn5)c4C3=O)cc2C1=O` [Example 2016, 1-(4-chloropyridin-2-yl)-N-(cyclopropylmethyl)-6-(2-methyl-1-oxo-1,2,3,4-tetrahydroisoquinolin-7-yl)-7-oxo-4,5,6,7-tetrahydro-1H-pyrazolo[3,4-c]pyridine-3-carboxamide], the pIC50 is 5.00 to 5.52.

In the case of `CN1CCc2ccc(N3CCc4c(C(=O)NCC5CC5)nn(-c5cncc(Cl)c5)c4C3=O)cc2C1=O` [Example 2021, 1-(5-chloropyridin-3-yl)-N-(cyclopropylmethyl)-6-(2-methyl-1-oxo-1,2,3,4-tetrahydroisoquinolin-7-yl)-7-oxo-4,5,6,7-tetrahydro-1H-pyrazolo[3,4-c]pyridine-3-carboxamide], the negative-log IC50 (pIC50) was 5.00 to 5.52.

With `CCOC(=O)c1nn(-c2cc(C)cc(CN)c2)c2c1CCN(c1ccc3c(c1)C(=O)N(C)CC3)C2=O` [Example 2022, ethyl 1-(3-(aminomethyl)-5-methylphenyl)-6-(2-methyl-1-oxo-1,2,3,4-tetrahydroisoquinolin-7-yl)-7-oxo-4,5,6,7-tetrahydro-1H-pyrazolo[3,4-c]pyridine-3-carboxylate], the pIC50 was 7.00 to 8.00.

For `CCOC(=O)c1nn(-c2cccc(C)n2)c2c1CCN(c1ccc3c(c1)C(=O)N(C)CC3)C2=O` [Example 2023, ethyl 6-(2-methyl-1-oxo-1,2,3,4-tetrahydroisoquinolin-7-yl)-1-(6-methylpyridin-2-yl)-7-oxo-4,5,6,7-tetrahydro-1H-pyrazolo[3,4-c]pyridine-3-carboxylate], the negative logarithm of the IC50 (pIC50) is 6.00 to 6.52.
